Results reported in patent US20230220353A1, “IN VITRO LIVER ORGANOIDS AND MINI-BILE DUCT MODELS OF BILIARY ARTRESIA AND APPLICATIONS THEREOF” (priority 2022, published 2023).

Tests used:
human liver organoids [1] = assay: Ciliated cholangiocyte count (pericentrin / acetylated α-tubulin immunostaining); assay type: cell-based
Method: (§1) Organoids were imaged on a laser confocal microscopy (Leica) equipped with a 20× dry objective and a 63× oil-immersion objective. Images were analyzed using ImageJ software. For quantification of the number of cilia from each group, the organoids were imaged using confocal microscopy (0.8 μm Z-axis interval, 40 μm in thickness). Maximum intensity projection was performed for visualization of the cilia in the organoids. FIG. 3A are representative images of control and day-2 biliatresone-treated human liver organoids stained for HNF4A (green). Nuclei were stained with DAPI (blue). The percentage of HNF4A positive cells in control and day-2 biliatresone-treated organoids were determined by counting the total number of cells and HNF4A+ cells of the organoids. Number of organoids counted in each group=3; *, p<0.05, student's t-test; error bars indicated the standard deviation.
To investigate if biliatresone disturbed ciliogenesis in human organoids, control organoids and biliatresone-treated organoids were immuno-stained for ciliary proteins Pericentrin (PCNT) and alpha-tubulin. […] The percentages of ciliated cells in control and biliatresone-treated organoids were determined by counting total number of cells and ciliated cells of the organoids. Number of organoids counted in each group=3; *, p<0.05, student's t-test; error bars indicated the standard deviation.

human liver organoids [2] = assay: Immunostaining of human liver organoids for differentiation, polarity, cytoskeleton and β-amyloid markers; assay type: cell-based
Method: Hepatocytic differentiation in human organoids was assessed by immuno-fluorescence for hepatocyte maker (HNF4A). Organoids in the Matrigel were washed with PBS (phosphate-buffered saline) before being fixed with 4% paraformaldehyde at room temperature for 20 minutes. The organoids were permeabilized with Triton X-100 (0.5% in PBS) for 20 minutes and blocked with 3% bovine serum albumin (BSA, Sigma-Aldrich) in PBS with 0.05% Triton X-100 (PBST) for 30 minutes at room temperature. The organoids were then incubated in primary antibodies (diluted in PBST with 3% BSA) at 4° C. overnight. After PBST washes (5 minutes for 3 times), organoids were incubated in secondary antibodies (diluted in PBST with 3% BSA) for 2 hours at room temperature. Afterward, the organoids were rinsed with PBS 3 times and incubated with DAPI solution for 30 minutes at room temperature. The organoids were rinsed with PBS (5 minutes for 3 times). Primary and secondary antibodies used in this examples were anti-ZO-1 (1:50, RA231621, Thermo Fisher), anti-CK19 (1:200, ab220193, Abcam), anti-F-actin (1:500, A22287, Thermo Fisher), anti-beta-amyloid (1:200, SIG-39220, 4G8, BioLegend), anti-HNF4A (1:50, ab201460, Abcam), Alexa Fluor 488 (1:500, A11008, Invitrogen) and Alexa Fluor 594 (1:500, A11032, Invitrogen).
as §1
To test if biliatresone induces apical-basal polarity defects in human organoids, the control group and biliatresone-treated organoids were stained with anti-ZO-1 antibody. FIG. 4 depicts the result of immunostaining of control and day-2 biliatresone-treated human liver organoids for ZO-1 (green) and CK19 (red). Nuclei were stained with DAPI (blue).
To investigate if biliatresone also induces cytoskeleton defects and Aβ accumulation in human organoids, Immunostaining was carried out for the control and day-2 biliatresone-treated human liver organoids for cytoskeleton protein F-actin (green) and β-amyloid (red). Nuclei were stained with DAPI (blue).
The percentages of β-amyloid positive cells in control and day-2 biliatresone-treated organoids were determined by counting total number of cells and β-amyloid+ cells of the organoids. Number of organoids counted in each group=3; *, p<0.05, student's t-test; error bars indicated the standard deviation.

MDR1 = MDR1 (Homo sapiens, UniProt P08183); assay: MDR1 activity assay (MDR1-mediated Rhodamine 123 transport assay); details: day-2 biliatresone-treated organoids, Rhodamine 123 100 μM, 30 minutes
Method: A MDR1 activity assay (MDR1-mediated Rhodamine 123 (R123) transport assay) was then performed to investigate the defective cholangiocyte differentiation of biliatresone-treated organoids.
Afterward, the liver organoids were washed with PBS and incubated in culture medium containing Rhodamine 123 (100 μM) at 37° C. for 30 minutes. After washing with PBS, the fluorescence of liver organoids was then visualized by laser confocal microscopy (Leica) immediately (as 0 minutes) and after 30 minutes incubation in culture medium.

human liver organoids [3] = assay: FITC-labeled dextran diffusion test (tight junction barrier integrity); assay type: cell-based; details: day-2 treated organoids, after 10 minutes of incubation; not observed in control
Method: In order to determine the integrity of liver organoids, a FITC-labeled dextran diffusion test was carried out to investigate if biliatresone-treated organoids has defects in the tight junction barrier for solutes. […] The fluorescent intensity of liver organoids was imaged using laser confocal microscopy at 10 and 30 minutes.

human cholangiocytes = assay: Cilia mechano-sensory calcium influx assay in mini-bile duct under shear flow (Calbryte 520); assay type: cell-based; details: 2 μg/ml for 5 days, shear flow 1 dyne/cm2, vs untreated cholangiocytes
Method: The organoids were released from the Matrigel by cold Advanced DMEM. The organoid pellets were obtained by centrifugation at 300 g, 3 minutes. Afterwards, the organoids were digested for 5 minutes at 37° C. via 1 mL of TrypLE Express Enzyme (1×). About 5,000 of organoid cells were seeded into each channel of the Matrigel coated 6-channel ibidi microfluidic chips (80607, ibidi), and the microfluidic chips were incubated at 37° C. in incubator. At day 3, monoloayer of cholangiocytes was formed representing the mini-bile duct with the luminal side facing the medium and the basal side facing the bottom of the microfluidic chips. To prepare for the calcium influx measurement, cholangiocyte monolayer was first incubated with 5 μM of Calbryte 520-AM (ATT) (prepared in Hanks' balanced salt solution, HBSS) for 1 hour at 37° C. Then, the cholangiocytes were washed with HBSS (5 minutes for 3 times). […] Time-lapse images were acquired for green fluorescence for 20 seconds (1-second intervals and 10 milliseconds exposure time) using Nikon Ti2e microscope (Nikon, Japan). […]
On day 3 post confluence, cholangiocytes were incubated with 5 μM of Calbryte 520-AM (ATT) (prepared in Hanks' balanced salt solution, HBSS) for 1 hour at 37° C. […] Time-lapse images were acquired for green fluorescence for 20 seconds (1-second intervals and 10 milliseconds exposure time) using Nikon Ti2e microscope (Nikon, Japan). […]

human liver organoids [4] = assay: Growth and morphology of human liver organoids (Hematoxylin and Eosin staining); assay type: cell-based; details: 2 μg/ml biliatresone
Method: Briefly, liver biopsy was minced and digested in gentle MACS-C Tube with 5 ml digestion medium (Multi Tissue Dissociation Kit 1), filtered (70 μm and 30 μm) and sorted by human CD326 (EpCAM) magnetic beads. CD326 positive cells were mixed with Matrigel (50,000 cells in 50 μl) and added to each well of a four-well culture plate (Nunc™ 4-Well Dishes). After Matrigel solidification, organoid medium (Advanced DMEM/F12 supplemented with 1% Penicillin/Streptomycin (Invitrogen), 250 ng/ml Amphotericin B (GIBCO), […], 1% N2 and 1% B27(GIBCO), 1.25 mM N-Acetylcysteine (Sigma), 10 nM gastrin (Sigma), and the growth factors: 50 ng/ml mEGF (Peprotech), 100 ng/ml FGF10 (Peprotech), 25 ng/ml HGF (Peprotech), 10 mM Nicotinamide (Sigma), 5 μM A83.01 (Tocris), and 10 μM FSK (Tocris), 25 ng/ml Noggin (Peprotech), 500 ng/ml R-Spondin 1 (R&D), 100 ng/ml Wnt3a (R&D), 10 μM Y27632 (Sigma Aldrich)) was added for organoid culturing. The medium was changed every three days. After culturing for 5 days, biliatresone solution (2867, Axon MEDCHEM; 2 μg/ml in DMSO) was added into the medium and the organoids were cultured for different periods for subsequent analysis. For the untreated control culture, DMSO (same volume as biliatresone) was added to the culture. FIG. 1 is a schematic diagram of the generation of biliatresone treated human liver organoids. […]

GSH = GSH level in liver organoids; assay type: cell-based, human
Method: GSH levels were measured in liver organoids from 0 to 48 hours without (Ctrl) or with biliatresone. Data was obtained from 3 wells in each group; *, p<0.05, student's t-test; error bars indicated the standard deviation.

SOX17 = SOX17 mRNA expression by real-time PCR normalized to GAPDH; assay type: cell-based, human; details: day-2 treated organoids vs control
Excerpt: Gene expressions in liver ductal organoids with or without biliatresone treatment for 2 day and 5 days were investigated. mRNA expression levels were characterized by real-time PCR for SOX17 normalized to GAPDH.

[5] = day-2 treated organoids vs control

MDR1, sequence (P08183 whole entry): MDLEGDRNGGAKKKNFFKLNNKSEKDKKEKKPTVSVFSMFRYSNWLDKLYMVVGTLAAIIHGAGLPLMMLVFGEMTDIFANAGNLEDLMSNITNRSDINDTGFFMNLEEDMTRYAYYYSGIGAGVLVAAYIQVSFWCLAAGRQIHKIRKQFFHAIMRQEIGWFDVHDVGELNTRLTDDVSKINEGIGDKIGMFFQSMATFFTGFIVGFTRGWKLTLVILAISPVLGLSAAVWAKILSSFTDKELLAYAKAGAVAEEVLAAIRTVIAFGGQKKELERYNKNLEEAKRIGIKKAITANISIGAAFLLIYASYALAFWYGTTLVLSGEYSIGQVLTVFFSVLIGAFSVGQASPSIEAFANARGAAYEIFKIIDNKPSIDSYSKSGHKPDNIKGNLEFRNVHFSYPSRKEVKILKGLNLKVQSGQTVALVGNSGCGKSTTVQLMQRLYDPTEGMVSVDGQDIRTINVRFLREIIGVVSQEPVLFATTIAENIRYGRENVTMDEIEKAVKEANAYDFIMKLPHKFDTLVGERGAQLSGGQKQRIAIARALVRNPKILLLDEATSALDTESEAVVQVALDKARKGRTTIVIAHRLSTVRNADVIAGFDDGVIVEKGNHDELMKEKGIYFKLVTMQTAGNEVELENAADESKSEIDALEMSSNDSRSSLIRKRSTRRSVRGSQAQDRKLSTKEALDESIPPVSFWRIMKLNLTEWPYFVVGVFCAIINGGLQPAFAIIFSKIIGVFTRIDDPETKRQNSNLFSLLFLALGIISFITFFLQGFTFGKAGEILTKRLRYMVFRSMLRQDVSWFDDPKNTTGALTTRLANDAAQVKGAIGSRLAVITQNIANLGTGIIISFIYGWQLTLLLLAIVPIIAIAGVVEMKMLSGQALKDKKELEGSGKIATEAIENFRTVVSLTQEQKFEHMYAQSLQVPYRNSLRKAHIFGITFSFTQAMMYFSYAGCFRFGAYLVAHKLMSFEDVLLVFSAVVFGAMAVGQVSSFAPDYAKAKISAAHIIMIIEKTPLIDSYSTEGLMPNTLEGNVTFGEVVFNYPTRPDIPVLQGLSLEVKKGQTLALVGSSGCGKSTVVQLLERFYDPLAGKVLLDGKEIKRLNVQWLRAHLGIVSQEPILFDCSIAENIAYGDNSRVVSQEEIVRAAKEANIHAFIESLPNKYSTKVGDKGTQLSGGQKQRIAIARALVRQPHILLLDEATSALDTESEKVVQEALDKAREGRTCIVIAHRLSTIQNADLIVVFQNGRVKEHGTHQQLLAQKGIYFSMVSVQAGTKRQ

SMILES: C=C(C(=O)c1c(OC)cc2c(c1OC)OCO2)c1ccccc1O [biliatresone, Biliatresone]
- percentage of ciliated cells (human liver organoids [1]; day 1 of treatment, Mean±SD, control 10.7±5%): 4.2±2%
- percentage of ciliated cells (human liver organoids [1]; day 3 of treatment): 0%
- percentage of Aβ positive cells (human liver organoids [2]; day-2 treated culture vs control culture (no Aβ positive cells in control), p<0.05): significantly higher
- ZO-1 immuno-reactivity (human liver organoids [2]; [5]): markedly reduced
- expression of cholangiocyte MDR1 (human liver organoids [2]; [5]): drastically reduced
- percentage of HNF4A+ cells in organoids (human liver organoids [2]; day-2 treated organoids, 2 μg/ml, Mean±SD, n=3, control 14.9±2%): 57.3±8%
- F-actin localization (human liver organoids [2]; day-2 treated organoids, control: apical side only): both the apical and the basal sides
- expression of cholangiocyte marker CK19 (human liver organoids [2]; treated organoids vs control): drastically reduced
- R123 transport across the organoid membrane (MDR1): very inefficient
- FITC-dextran (10 kDa) localization (human liver organoids [3]): localize in the lumen
- extent of calcium influx (human cholangiocytes): significantly reduced
- percentage of evoked cells after perfusion stimulation (human cholangiocytes): significantly reduced
- organoid morphology (human liver organoids [4]; day 5, vs DMSO control): not well-expanded
- organoid diameter (human liver organoids [4]; day 5, control organoids 25-100 μm): 5-20 μm
- GSH level (GSH; 6, 24 and 48 hours of treatment): restored
- GSH level (GSH; 3 hours of treatment vs control): small but significant drop
- SOX17 expression (SOX17): small but significant drop
